# Data taken from patent US20210196724A1, “BIARYL COMPOSITIONS AND METHODS FOR MODULATING A KINASE CASCADE” (Athenex, Inc., priority 2016, published 2021).
# How the values were obtained:
# Assay type in all cases: cell-based
# [1] = test system: SW579 cells; assay: CellTiter-Glo cell viability, SW579; settings: 72 h
# Procedure: (§1) The cell viability of 50 cancer cell lines was studied after treatment with Compound 121. Inhibition concentration values at 50% (IC50) were determined using CellTiter-Glo luminescent cell viability assay after incubation with different compound concentrations. GI50 values were determined according to the examples described above. Each cell line was treated with Compound 121, a standard chemotherapy drug as a reference control, and culture medium as a vehicle control.
# (§2) All cells were cultured in media supplemented with 10-15% FBS at 37° C. in the presence of 5% CO2 and at 95% humidity. The culture medium was purchased from GIBCO or Sigma, USA. Cisplatin was chosen as the reference control and purchased from Hospira Australia Pty Ltd. The cell lines studied are presented in Table 5.
# (§3) Cells were harvested during a logarithmic growth period and cell number count was determined using Count-star. Cell concentrations were adjusted to 4.44×10^4 cells/mL with respective culture medium. 90 μL of cell suspensions were added to two 96-well plates (plates A and B) with a final cell density of 4×10^3 cells/well.
# (§4) 10 μL of culture medium was added to each well of plate A for TO reading. The plate was allowed to equilibrate at room temperature for approximately 30 min. 50 μL of CellTiter-Glo was added to each well and the contents were mixed for 5 min on an orbital shaker to induce cell lysis. The plate was allowed to incubate at room temperature for 20 min to stabilize luminescent signal.
# (§5) 10 μM Compound 121 in media was serially diluted 3.16-fold to achieve 9 dose levels. Similarly, 100 μM reference control in media was serially diluted 3.16-fold to prepare reference control solutions. 10 μL drug solution and 10 μL of reference control was dispensed into each well in plate B.
# (§6) Test plate B was incubated for 72 h in a humidified incubator at 37° C. in the presence of 5% CO2 and then subjected to CTG assay. The plate was allowed to equilibrate at room temperature for about 30 min. 50 μL of CellTiter-Glo was added to each well and the contents were mixed for 5 min on an orbital shaker to induce cell lysis. The plate was allowed to incubate at room temperature for 20 min to stabilize luminescent signal.
# (§7) IC50 and GI50 values for each of the 50 cell lines are presented in Table 6 and were calculated based on the dose-response curves depicted in FIGS. 1-50. The dose-response curves were fitted using nonlinear regression model with a sigmoidal dose response. The formula for calculating survival rate was calculated by the formula:
# (§8) Survival rate (%)=(LumTest article−LumMedium control)/(LumNone treated−LumMedium control)×100.
# [2] = test system: 143B cells; assay: CellTiter-Glo cell viability, 143B; settings: Homo sapiens, 72 h
# Procedure: as §1, §2, §3, §4, §5, §6, §7, §8
# [3] = test system: HCT-15 cells; assay: CellTiter-Glo cell viability, HCT-15; settings: Homo sapiens, 72 h
# Procedure: as §1, §2, §3, §4, §5, §6, §7, §8
# [4] = test system: MDA-MB-453 cells; assay: CellTiter-Glo cell viability, MDA-MB-453; settings: Homo sapiens, 72 h
# Procedure: as §1, §2, §3, §4, §5, §6, §7, §8
# [5] = test system: RPMI 8226 cells; assay: CellTiter-Glo cell viability, RPMI 8226; settings: Homo sapiens, 72 h
# Procedure: as §1, §2, §3, §4, §5, §6, §7, §8
# [6] = test system: MDA-MB-468 cells; assay: CellTiter-Glo cell viability, MDA-MB-468; settings: Homo sapiens, 72 h
# Procedure: as §1, §2, §3, §4, §5, §6, §7, §8
# [7] = test system: NCI-H1155 cells; assay: CellTiter-Glo cell viability, NCI-H1155; settings: Homo sapiens, 72 h
# Procedure: as §1, §2, §3, §4, §5, §6, §7, §8
# [8] = test system: HT-1376 cells; assay: CellTiter-Glo cell viability, HT-1376; settings: Homo sapiens, 72 h
# Procedure: as §1, §2, §3, §4, §5, §6, §7, §8
# [9] = test system: K-562 cells; assay: CellTiter-Glo cell viability, K-562; settings: Homo sapiens, K562, 72 h
# Procedure: as §1, §2, §3, §4, §5, §6, §7, §8
# [10] = test system: HL-60 cells; assay: CellTiter-Glo cell viability, HL-60; settings: Homo sapiens, 72 h
# Procedure: as §1, §2, §3, §4, §5, §6, §7, §8
# [11] = test system: Raji cells; assay: CellTiter-Glo cell viability, Raji; settings: Homo sapiens, 72 h
# Procedure: as §1, §2, §3, §4, §5, §6, §7, §8
# [12] = test system: KARPAS-299 cells; assay: CellTiter-Glo cell viability, KARPAS-299; settings: Homo sapiens, 72 h
# Procedure: as §1, §2, §3, §4, §5, §6, §7, §8
# [13] = test system: PC-3 cells; assay: CellTiter-Glo cell viability, PC-3; settings: Homo sapiens, 72 h
# Procedure: as §1, §2, §3, §4, §5, §6, §7, §8
# [14] = test system: MES-SA/DX5 cells; assay: CellTiter-Glo cell viability, MES-SA/DX5; settings: Homo sapiens, 72 h
# Procedure: as §1, §2, §3, §4, §5, §6, §7, §8
# [15] = test system: SK-MEL-28 cells; assay: CellTiter-Glo cell viability, SK-MEL-28; settings: Homo sapiens, 72 h
# Procedure: as §1, §2, §3, §4, §5, §6, §7, §8
# [16] = test system: HuT 78 cells; assay: CellTiter-Glo cell viability, HuT 78; settings: Homo sapiens, HuT78, 72 h
# Procedure: as §1, §2, §3, §4, §5, §6, §7, §8
# [17] = test system: SCC-4 cells; assay: CellTiter-Glo cell viability, SCC-4; settings: Homo sapiens, 72 h
# Procedure: as §1, §2, §3, §4, §5, §6, §7, §8
# [18] = test system: EBC-1 cells; assay: CellTiter-Glo cell viability, EBC-1; settings: Homo sapiens, 72 h
# Procedure: as §1, §2, §3, §4, §5, §6, §7, §8
# [19] = test system: A-673 cells; assay: CellTiter-Glo cell viability, A-673; settings: Homo sapiens, A673, 72 h
# Procedure: as §1, §2, §3, §4, §5, §6, §7, §8
# [20] = test system: U251 cells; assay: CellTiter-Glo cell viability, U251; settings: Homo sapiens, U-251, 72 h
# Procedure: as §1, §2, §3, §4, §5, §6, §7, §8
# [21] = test system: NCI-N87 cells; assay: CellTiter-Glo cell viability, NCI-N87; settings: Homo sapiens, 72 h
# Procedure: as §1, §2, §3, §4, §5, §6, §7, §8
# [22] = top conc. 10 μM Compound 121, 100 μM cisplatin
smiles,measurement,setting,value
Cc1cc(N2CCOC[C@@H]2C)ccc1-c1ccc(CC(=O)NCc2ccc(F)cc2)nc1 [Compound 121],GI50,[1]; read-out: Absolute GI50,6 nM
same,IC50,[1]; read-out: Absolute IC50,7 nM
same,inhibition at 10 µM,[1]; [22],88.2%
same,GI50,[2]; read-out: Absolute GI50,8 nM
same,IC50,[2]; read-out: Absolute IC50,8 nM
same,inhibition at 10 µM,[2]; [22],97.8%
same,GI50,[3]; read-out: Absolute GI50,5 nM
same,IC50,[3]; read-out: Absolute IC50,6 nM
same,inhibition at 10 µM,[3]; [22],96.8%
same,GI50,[4]; read-out: Absolute GI50,4 nM
same,IC50,[4]; read-out: Absolute IC50,4 nM
same,inhibition at 10 µM,[4]; [22],67.5%
same,GI50,[5]; read-out: Absolute GI50,5 nM
same,IC50,[5]; read-out: Absolute IC50,6 nM
same,inhibition at 10 µM,[5]; [22],94.8%
same,GI50,[6]; read-out: Absolute GI50,7 nM
same,IC50,[6]; read-out: Absolute IC50,9 nM
same,inhibition at 10 µM,[6]; [22],80%
same,GI50,[7]; read-out: Absolute GI50,6 nM
same,IC50,[7]; read-out: Absolute IC50,7 nM
same,inhibition at 10 µM,[7]; [22],87.3%
same,GI50,[8]; read-out: Absolute GI50,6 nM
same,IC50,[8]; read-out: Absolute IC50,9 nM
same,inhibition at 10 µM,[8]; [22],53%
same,GI50,[9]; read-out: Absolute GI50,6 nM
same,IC50,[9]; read-out: Absolute IC50,6 nM
same,inhibition at 10 µM,[9]; [22],98.1%
same,GI50,[10]; read-out: Absolute GI50,7 nM
same,IC50,[10]; read-out: Absolute IC50,8 nM
same,inhibition at 10 µM,[10]; [22],99.8%
same,GI50,[11]; read-out: Absolute GI50,5 nM
same,IC50,[11]; read-out: Absolute IC50,5 nM
same,inhibition at 10 µM,[11]; [22],94.2%
same,GI50,[12]; read-out: Absolute GI50,6 nM
same,IC50,[12]; read-out: Absolute IC50,6 nM
same,inhibition at 10 µM,[12]; [22],99.4%
same,GI50,[13]; read-out: Absolute GI50,8 nM
same,IC50,[13]; read-out: Absolute IC50,8 nM
same,inhibition at 10 µM,[13]; [22],93.3%
same,GI50,[14]; read-out: Absolute GI50,7 nM
same,IC50,[14]; read-out: Absolute IC50,7 nM
same,inhibition at 10 µM,[14]; [22],97.8%
same,GI50,[15]; read-out: Absolute GI50,4 nM
same,IC50,[15]; read-out: Absolute IC50,> 10000 nM
same,inhibition at 10 µM,[15]; [22],52.9%
same,GI50,[16]; read-out: Absolute GI50,8 nM
same,IC50,[16]; read-out: Absolute IC50,9 nM
same,inhibition at 10 µM,[16]; [22],95.2%
same,GI50,[17]; read-out: Absolute GI50,5 nM
same,IC50,[17]; read-out: Absolute IC50,6 nM
same,inhibition at 10 µM,[17]; [22],86.1%
same,GI50,[18]; read-out: Absolute GI50,4 nM
same,IC50,[18]; read-out: Absolute IC50,4 nM
same,inhibition at 10 µM,[18]; [22],56.8%
same,GI50,[19]; read-out: Absolute GI50,3 nM
same,IC50,[19]; read-out: Absolute IC50,4 nM
same,inhibition at 10 µM,[19]; [22],86.1%
same,GI50,[20]; read-out: Absolute GI50,9 nM
same,IC50,[20]; read-out: Absolute IC50,9 nM
same,inhibition at 10 µM,[20]; [22],75%
same,GI50,[21]; read-out: Absolute GI50,4 nM
same,IC50,[21]; read-out: Absolute IC50,4 nM
same,inhibition at 10 µM,[21]; [22],49.6%
